# Source: PMC7738869, “A novel STAT3 inhibitor W2014-S regresses human non-small cell lung cancer xenografts and sensitizes EGFR-TKI acquired resistance” (Theranostics, 2021)
# pIC50, pKd: −log10 of the molar value.
# Assays:
# [1] = test system: PC-9 cells; assay: Cell viability assay (CCK-8), PC-9; type: cell-based; conditions: Homo sapiens, PC-9, 72 h, read-out: IC50 cell proliferation
# Method: (§1) Cell proliferation was measured using the Cell Counting Kit-8 (CCK-8, B34304, Bimake, USA). A549 (2 × 10^3/100 μL/well), PC-9 (3 × 10^3/100 μL/well) or PC-9/GR cells (3 × 10^3/100 μL/well) were plated into each well of 96-well plates (Costar, USA). […] Then, 10 μL of CCK-8 was added to each well, and cells were incubated for 1-4 h until the color of untreated controls turned to orange. The absorbance (A) was measured by a microplate reader (FLUOstar Omega-ACU, USA) at test and reference wavelengths of 450 nm. The percentage of growth was calculated as Cell viability (%) = [A (Compound +) - A (Blank) ] / [A (Compound -) - A (Blank) ] × 100%. Cell viability meant proliferation of cells. Each experiment was done at least in triplicate, and thrice independently.
# [2] = test system: PC-9 cells; assay: Colony formation assay, PC-9; type: cell-based, human; conditions: PC-9, as low as 0.3 μM
# [3] = test system: A549 cells; assay: Colony formation assay, A549; type: cell-based, human; conditions: A549, as low as 0.3 μM
# [4] = test system: A549 cells; assay: Wound healing assay for migration; type: cell-based, human; conditions: 48 h
# Method: The motility of cells was measured by wound healing assay. Cells were seeded into 6-well plates and cultured to 90-100% confluent after 24 h. Wounds were made in each well of 6-well plates using pipette tips. […] The migration of cells was visualized under a microscope (4 ×, Nikon, Japan) and photographed in different time points (0 and 48 h).
# [5] = test system: A549 cells; assay: Transwell cell invasion assay, A549; conditions: A549, 1 μM
# Method: Transwell invasion assays were performed as previously reported [37] using Transwell chamber (Costar, USA). […] Data from triplicates experiments were pooled and plotted as shown.
# [6] = target: full-length wild-type STAT3 (Homo sapiens, UniProt P40763); assay: Surface plasmon resonance analysis of binding to STAT3; conditions: SPR
# Method: Biacore 8K and Biacore Insight Evaluation software were used to analyze the interaction between the agents and the protein full-length wild-type STAT3 to detect the binding affinity. Purified STAT3 (100 μg/mL) without Tris and glycerin was injected onto the CM5 Chip (GE, USA) for immobilization. Several concentrations of W2014-S or W2014-R dissolved in running buffer (1×PBS with filtration, 0.01% DMSO) were flown over the chip to produce response signals. The kinetics and affinities were calculated by the Biacore Insight Evolution software, and the results were determined as the binding affinity (KD).
# [7] = test system: A549 cells; assay: Cell viability assay (CCK-8), A549; type: cell-based; conditions: Homo sapiens, A549, 72 h, read-out: IC50 cell proliferation
# Method: as §1
# [8] = test system: PC-9/GR xenografts; conditions: gefitinib intragastric 20 mg/kg per day, W2014-S 10 mg/kg/day, 21 d
# Method: For PDX model, the PDX sample was from The Jackson Laboratory. […] The tumor sample were cut into approximately 1 mm^3, and the tissue was pushed under skin of mice by TROCHAR. When tumor volumes reached approximately 100 mm^3, mice were randomly distributed into groups of 7 mice. […] Tumor size was measured every two days by vernier caliper. The average tumor volume in each group was calculated based on the equation for a prolate spheroid (tumor volume = (short-diameter)^2 × large-diameter × π / 6 ) and expressed in mm^3.
# [9] = test system: PC-9/GR cells; assay: Cell apoptosis assay (Annexin V-FITC/PI flow cytometry), PC-9/GR; type: cell-based, human; conditions: gefitinib 2 μM and/or W2014-S 1 μM, 72 h
# Method: Briefly, aliquots of 2 × 10^5 cells were seeded into 6-well plates and incubated for 24 h at 37 °C. […] After trypsinization and gently washing cells once with medium, the cells were washed twice with cold PBS. The precipitation was resuspended by 400 μL of 1 × binding buffer, and then resuspended cells were transferred into new 1.5 mL EP tubes. Then 3 μL of Annexin V-FITC and 5 μL of propidium iodide were added to the resuspended cells with further incubation at room temperature for 15 min in the dark. The analysis was done on Guava easyCyte (USA) and FlowJo 7.6 software.
# full-length wild-type STAT3, sequence (P40763 whole entry): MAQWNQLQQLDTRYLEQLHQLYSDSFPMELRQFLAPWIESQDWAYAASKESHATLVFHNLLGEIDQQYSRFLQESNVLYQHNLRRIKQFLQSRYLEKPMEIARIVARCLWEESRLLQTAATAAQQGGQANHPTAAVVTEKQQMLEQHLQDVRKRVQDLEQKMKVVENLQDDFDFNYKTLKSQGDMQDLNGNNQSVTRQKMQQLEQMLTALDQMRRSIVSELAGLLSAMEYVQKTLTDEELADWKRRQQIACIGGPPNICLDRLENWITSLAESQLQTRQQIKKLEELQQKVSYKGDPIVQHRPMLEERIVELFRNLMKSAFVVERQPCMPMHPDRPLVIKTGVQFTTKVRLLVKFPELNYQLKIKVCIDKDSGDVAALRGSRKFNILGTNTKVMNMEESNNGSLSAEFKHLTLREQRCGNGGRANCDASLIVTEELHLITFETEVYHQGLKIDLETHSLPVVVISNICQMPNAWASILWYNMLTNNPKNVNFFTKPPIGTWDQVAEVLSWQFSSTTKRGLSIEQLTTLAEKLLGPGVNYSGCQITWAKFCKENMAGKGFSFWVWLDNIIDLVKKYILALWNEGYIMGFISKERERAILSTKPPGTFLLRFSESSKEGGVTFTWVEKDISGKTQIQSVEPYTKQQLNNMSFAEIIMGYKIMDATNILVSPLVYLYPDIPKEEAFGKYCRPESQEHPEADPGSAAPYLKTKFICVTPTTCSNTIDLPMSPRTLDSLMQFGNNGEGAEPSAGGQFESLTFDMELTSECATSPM
pIC50 [1],pKd [6],pIC50 [7],Structure (SMILES),colony formation [2],colony formation [3],cell migration [4],cell invasion [5],xenograft tumor growth [8],Q1 [9] [%],Q2 [9] [%],Q3 [9] [%],Q4 [9] [%]
5.58,5.47,5.62,C[C@@H](Oc1ccc(-c2nc3nc(C4=CCN(C(=O)OC(C)(C)C)CC4)ccc3[nH]2)cc1)c1ccccc1 [W2014-R],significantly suppressed the colony formation,significantly suppressed the colony formation,slightly inhibition,not,–,–,–,–,–
–,–,–,"COc1cc2ncnc(Nc3ccc(F)c(Cl)c3)c2cc1OCCCN1CCOCC1 [Gefitinib, reference compound]",–,–,–,–,slight inhibitory effect,0.103,4.61,3.05,92.2
